Results taken from the supplement of paper PMC6045584.
± gives the standard deviation of the averaged measurements.

Experiments:
SORAFENIB = compound: CNC(=O)c1cc(Oc2ccc(NC(=O)Nc3ccc(Cl)c(C(F)(F)F)c3)cc2)ccn1 [SORAFENIB]; assay: area under dose-response curve of surviving fraction (unscaled, Aref=0) (surviving fraction x log10(nM)); higher = more resistant; settings: exposure time: 5 days; dose range 0.5-1000 nM
In short: (§1)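 Each tumour cell line was screened three times in 384-well plates, receiving eight inhibitor concentrations from 0.5 to 1000 nM for five days. CellTiter-Glo luminescence gave viability, normalised to DMSO-only wells. Using the drc R package, surviving fractions were fitted with 3-parameter logistic dose-response curves, and the unscaled activity area over log10 dose (Aref = 0) was taken as the area under the curve.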

TEMOZOLOMIDE [1] = compound: T1, Cn1nnc2c(C(N)=O)ncn2c1=O [TEMOZOLOMIDE]; assay: as above; settings: exposure time: 5 days; dose range 0.5-1000 nM
In short: as §1

[2] = compound: CNCc1ccc(-c2[nH]c3cc(F)cc4c3c2CCNC4=O)cc1; assay: as above; settings: exposure time: 5 days; dose range 0.5-1000 nM
In short: as §1

OLAPARIB = compound: O=C(c1cc(Cc2n[nH]c(=O)c3ccccc23)ccc1F)N1CCN(C(=O)C2CC2)CC1 [OLAPARIB]; assay: as above; settings: exposure time: 5 days; dose range 0.5-1000 nM
In short: as §1

[3] = compound: COc1cc2ncnc(Nc3ccc(F)c(Cl)c3)c2cc1NC(=O)/C=C/CN1CCCCC1; assay: as above; settings: exposure time: 5 days; dose range 0.5-1000 nM
In short: as §1

MLN-4924 [4] = compound: T2, NS(=O)(=O)OC[C@@H]1C[C@@H](n2ccc3c(N[C@H]4CCc5ccccc54)ncnc32)C[C@@H]1O [MLN-4924]; assay: as above; settings: exposure time: 5 days; dose range 0.5-1000 nM
In short: as §1

ABIRATERONE = compound: C[C@]12CC[C@H](O)CC1=CC[C@@H]1[C@@H]2CC[C@]2(C)C(c3cccnc3)=CC[C@@H]12 [ABIRATERONE]; assay: as above; settings: exposure time: 5 days; dose range 0.5-1000 nM
In short: as §1

DASATINIB [5] = compound: T3, Cc1nc(Nc2ncc(C(=O)Nc3c(C)cccc3Cl)s2)cc(N2CCN(CCO)CC2)n1 [DASATINIB]; assay: as above; settings: exposure time: 5 days; dose range 0.5-1000 nM
In short: as §1

XAV-939 = compound: Oc1nc(-c2ccc(C(F)(F)F)cc2)nc2c1CSCC2 [XAV-939]; assay: as above; settings: exposure time: 5 days; dose range 0.5-1000 nM
In short: as §1

[6] = compound: CCn1c(C(=O)N(C2CC2)C2CC2)cc2c3c(ncn3C)c(Nc3cc(C)n(C)n3)nc21; assay: as above; settings: exposure time: 5 days; dose range 0.5-1000 nM
In short: as §1

CRIZOTINIB [7] = compound: T4, C[C@@H](Oc1cc(-c2cnn(C3CCNCC3)c2)cnc1N)c1c(Cl)ccc(F)c1Cl [CRIZOTINIB]; assay: as above; settings: exposure time: 5 days; dose range 0.5-1000 nM
In short: as §1

FORETINIB [8] = compound: T5, COc1cc2c(Oc3ccc(NC(=O)C4(C(=O)Nc5ccc(F)cc5)CC4)cc3F)ccnc2cc1OCCCN1CCOCC1 [FORETINIB]; assay: as above; settings: exposure time: 5 days; dose range 0.5-1000 nM
In short: as §1

[9] = compound: C[C@@H](Oc1cc(-c2cnn(C3CCNCC3)c2)cnc1N)c1c(Cl)ccc(F)c1Cl; assay: as above; settings: exposure time: 5 days; dose range 0.5-1000 nM
In short: as §1

SOTRASTAURIN/AEB071 [10] = compound: T6, CN1CCN(c2nc(C3=C(c4c[nH]c5ccccc45)C(=O)NC3=O)c3ccccc3n2)CC1 [SOTRASTAURIN/AEB071]; assay: as above; settings: exposure time: 5 days; dose range 0.5-1000 nM
In short: as §1

TEMOZOLOMIDE [11] = compound: T1, TEMOZOLOMIDE; assay: surviving fraction relative to DMSO-only wells; higher = less growth inhibition; settings: exposure time: 5 days
In short: (§2)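 At 250–500 cells per well in 384-well plates, log-phase tumour cell lines were seeded and, 24 hours on, exposed continuously for five days to inhibitors at 0.5, 1, 5, 10, 50, 100, 500 and 1000 nM. Viability readout was CellTiter-Glo luminescence, reported as surviving fraction normalised to the median of DMSO-only wells.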

[12] = compound: CNCc1ccc(-c2[nH]c3cc(F)cc4c3c2CCNC4=O)cc1; assay: as above; settings: exposure time: 5 days
In short: as §2

SOTRASTAURIN/AEB071 [13] = compound: T6, SOTRASTAURIN/AEB071; assay: as above; settings: exposure time: 5 days
In short: as §2

MLN-4924 [14] = compound: T2, MLN-4924; assay: as above; settings: exposure time: 5 days
In short: as §2

DASATINIB [15] = compound: T3, DASATINIB; assay: as above; settings: exposure time: 5 days
In short: as §2

CRIZOTINIB [16] = compound: T4, CRIZOTINIB; assay: as above; settings: exposure time: 5 days
In short: as §2

FORETINIB [17] = compound: T5, FORETINIB; assay: as above; settings: exposure time: 5 days
In short: as §2

For HS57T LUNG, the “area under dose-response curve” value (SORAFENIB) was 3.44, the “area under dose-response curve” value (TEMOZOLOMIDE [1]) was 3.27 and the “area under dose-response curve” value [2] was 3.17. The “area under dose-response curve” value (OLAPARIB) was 3.54, the “area under dose-response curve” value [3] was 3.17 and the “area under dose-response curve” value (MLN-4924 [4]) was 2.38. For the same test system, the “area under dose-response curve” value (ABIRATERONE) was 3.71, the “area under dose-response curve” value (DASATINIB [5]) was 1.87 and the “area under dose-response curve” value (XAV-939) was 3.24. The “area under dose-response curve” value [6] was 3.21, the “area under dose-response curve” value (CRIZOTINIB [7]) was 3.12 and the “area under dose-response curve” value (FORETINIB [8]) was 3.04. For the same test system, the “area under dose-response curve” value [9] was 2.97.

In the case of CCK81 LARGE INTESTINE, the “area under dose-response curve” value (TEMOZOLOMIDE [1]) is reported as 2.52, the “area under dose-response curve” value [2] is reported as 2.66 and the “area under dose-response curve” value (SOTRASTAURIN/AEB071 [10]) is reported as 2.85. The “area under dose-response curve” value (MLN-4924 [4]) was 2.47, the “area under dose-response curve” value (DASATINIB [5]) was 1.86 and the “area under dose-response curve” value (CRIZOTINIB [7]) was 2.36. For the same test system, the “area under dose-response curve” value (FORETINIB [8]) was 2.29, the surviving fraction (TEMOZOLOMIDE [11]; 0.5 nM) was 0.766 ± 0.075 and the surviving fraction (TEMOZOLOMIDE [11]; 1 nM) was 0.729 ± 0.06. It also gave a surviving fraction (TEMOZOLOMIDE [11]; 5 nM) of 0.744 ± 0.041, a surviving fraction (TEMOZOLOMIDE [11]; 10 nM) of 0.771 ± 0.024 and a surviving fraction (TEMOZOLOMIDE [11]; 50 nM) of 0.775 ± 0.083. It also gave a surviving fraction (TEMOZOLOMIDE [11]; 100 nM) of 0.745 ± 0.048, a surviving fraction (TEMOZOLOMIDE [11]; 500 nM) of 0.789 ± 0.033 and a surviving fraction (TEMOZOLOMIDE [11]; 1000 nM) of 0.817 ± 0.055. It also gave a surviving fraction ([12]; 0.5 nM) of 0.829 ± 0.06, a surviving fraction ([12]; 1 nM) of 0.766 ± 0.13 and a surviving fraction ([12]; 5 nM) of 0.861 ± 0.24. For the same test system, the surviving fraction ([12]; 10 nM) was 0.719 ± 0.12, the surviving fraction ([12]; 50 nM) was 0.789 ± 0.041 and the surviving fraction ([12]; 100 nM) was 0.803 ± 0.058. It also gave a surviving fraction ([12]; 500 nM) of 0.914 ± 0.053, a surviving fraction ([12]; 1000 nM) of 0.783 ± 0.023 and a surviving fraction (SOTRASTAURIN/AEB071 [13]; 0.5 nM) of 0.811 ± 0.12. For the same test system, the surviving fraction (SOTRASTAURIN/AEB071 [13]; 1 nM) was 0.829 ± 0.13, the surviving fraction (SOTRASTAURIN/AEB071 [13]; 5 nM) was 0.892 ± 0.075 and the surviving fraction (SOTRASTAURIN/AEB071 [13]; 10 nM) was 0.814 ± 0.079. It also gave a surviving fraction (SOTRASTAURIN/AEB071 [13]; 50 nM) of 0.917 ± 0.0085, a surviving fraction (SOTRASTAURIN/AEB071 [13]; 100 nM) of 0.866 ± 0.038 and a surviving fraction (SOTRASTAURIN/AEB071 [13]; 500 nM) of 0.943 ± 0.088. The surviving fraction (SOTRASTAURIN/AEB071 [13]; 1000 nM) was 0.83 ± 0.064, the surviving fraction (MLN-4924 [14]; 0.5 nM) was 0.87 ± 0.11 and the surviving fraction (MLN-4924 [14]; 1 nM) was 0.814 ± 0.12. For the same test system, the surviving fraction (MLN-4924 [14]; 5 nM) was 0.704 ± 0.15, the surviving fraction (MLN-4924 [14]; 10 nM) was 0.794 ± 0.088 and the surviving fraction (MLN-4924 [14]; 50 nM) was 0.867 ± 0.07. It also gave a surviving fraction (MLN-4924 [14]; 100 nM) of 0.831 ± 0.059, a surviving fraction (MLN-4924 [14]; 500 nM) of 0.567 ± 0.066 and a surviving fraction (MLN-4924 [14]; 1000 nM) of 0.473 ± 0.065. For the same test system, the surviving fraction (DASATINIB [15]; 0.5 nM) was 0.942 ± 0.19, the surviving fraction (DASATINIB [15]; 1 nM) was 0.774 ± 0.035 and the surviving fraction (DASATINIB [15]; 5 nM) was 0.741 ± 0.13. The surviving fraction (DASATINIB [15]; 10 nM) was 0.744 ± 0.059, the surviving fraction (DASATINIB [15]; 50 nM) was 0.577 ± 0.1 and the surviving fraction (DASATINIB [15]; 100 nM) was 0.411 ± 0.1. It also gave a surviving fraction (DASATINIB [15]; 500 nM) of 0.0847 ± 0.02, a surviving fraction (DASATINIB [15]; 1000 nM) of 0.0473 ± 0.012 and a surviving fraction (CRIZOTINIB [16]; 1 nM) of 0.854 ± 0.084. For the same test system, the surviving fraction (CRIZOTINIB [16]; 5 nM) was 0.776 ± 0.15, the surviving fraction (CRIZOTINIB [16]; 10 nM) was 0.788 ± 0.087 and the surviving fraction (CRIZOTINIB [16]; 50 nM) was 0.749 ± 0.11. The surviving fraction (CRIZOTINIB [16]; 100 nM) was 0.718 ± 0.028, the surviving fraction (CRIZOTINIB [16]; 500 nM) was 0.62 ± 0.12 and the surviving fraction (CRIZOTINIB [16]; 1000 nM) was 0.315 ± 0.053. For the same test system, the surviving fraction (FORETINIB [17]; 0.5 nM) was 0.867 ± 0.085, the surviving fraction (FORETINIB [17]; 1 nM) was 0.729 ± 0.084 and the surviving fraction (FORETINIB [17]; 5 nM) was 0.719 ± 0.059. The surviving fraction (FORETINIB [17]; 10 nM) was 0.726 ± 0.13, the surviving fraction (FORETINIB [17]; 50 nM) was 0.793 ± 0.065 and the surviving fraction (FORETINIB [17]; 100 nM) was 0.757 ± 0.025. The surviving fraction (FORETINIB [17]; 500 nM) was 0.559 ± 0.043 and the surviving fraction (FORETINIB [17]; 1000 nM) was 0.338 ± 0.083.
